Test results: article PMC11992225, “Antibacterial compounds against non-growing and intracellular bacteria” (npj Antimicrobials and Resistance, 2025)
Read-outs that look alike come from different tables or passages of the source.

Experiments:
non-growing UPEC CFT073 = assay: Dilution-regrowth assay (screen, hit validation, dose-response) on stationary-phase UPEC; type: cell-based, Escherichia coli; details: for Regrowth: OD600 after dilution into drug-free medium (mean): OD600 at 6h or 8h; for EC50: Escherichia coli
How it was run: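 Regrowth (OD600 after 6 h, 37 °C) of diluted non-growing CFT073, following 24 h compound treatment of 24 h stationary cultures, defines activity relative to untreated control. Screen at 20 µM, validation at 20, 10, 5 µM (duplicates), dose–response in three biological replicates fitted by five-parameter logistic.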

[1] = system: non-growing S. aureus DSM2569; assay: Dilution-regrowth assay (OD600, start-growth-time) on stationary-phase S. aureus; type: cell-based, Staphylococcus aureus; details: S. aureus; for Regrowth: OD600 after dilution into drug-free medium (mean): OD600 at 6h or 8h
How it was run: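 Stationary-phase S. aureus cultures were grown and exposed to compound for 24 h in 1:4 CA-MHB (pH 7.4) at 37 °C in 96-well plates with 200 μl volume. After dilution into drug-free medium, regrowth was tracked in a plate reader at 37 °C with continuous shaking, reading OD600 every 20 min; EC50 came from five-parameter logistic fitting.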

[2] = system: intracellular S. flexneri 5a M90T in TC7 cells; assay: microbe, parasite or virus in culture; type: cell-based, Shigella flexneri

SMILES: CO[C@H]1/C=C/O[C@@]2(C)Oc3c(C)c(O)c4c(O)c(c(/C=N/N5CCN(C6CCCC6)CC5)c(O)c4c3C2=O)NC(=O)/C(C)=C\C=C\[C@H](C)[C@H](O)[C@@H](C)[C@@H](O)[C@@H](C)[C@H](OC(C)=O)[C@@H]1C [Rifapentine]
- Regrowth: OD600 after dilution into drug-free medium (mean) (non-growing UPEC CFT073; E. coli in 1:4 CA-MHB (pH 7.4), concentration 0.25): 0.612
- Regrowth: OD600 after dilution into drug-free medium (mean) (non-growing UPEC CFT073; E. coli in 1:4 CA-MHB (pH 7.4), concentration 0.5): 0.591
- Regrowth: OD600 after dilution into drug-free medium (mean) (non-growing UPEC CFT073; E. coli in 1:4 CA-MHB (pH 7.4), concentration 1): 0.589
- Regrowth: OD600 after dilution into drug-free medium (mean) (non-growing UPEC CFT073; E. coli in 1:4 CA-MHB (pH 7.4), concentration 2.5): 0.581
- Regrowth: OD600 after dilution into drug-free medium (mean) (non-growing UPEC CFT073; E. coli in 1:4 CA-MHB (pH 7.4), concentration 5): 0.558
- Regrowth: OD600 after dilution into drug-free medium (mean) (non-growing UPEC CFT073; E. coli in 1:4 CA-MHB (pH 7.4), concentration 10): 0.549
- Regrowth: OD600 after dilution into drug-free medium (mean) (non-growing UPEC CFT073; E. coli in 1:4 CA-MHB (pH 7.4), concentration 30): 0.527
- Regrowth: OD600 after dilution into drug-free medium (mean) (non-growing UPEC CFT073; E. coli in LPM (pH 5.5), concentration 0.25): 0.548
- Regrowth: OD600 after dilution into drug-free medium (mean) (non-growing UPEC CFT073; E. coli in LPM (pH 5.5), concentration 0.5): 0.505
- Regrowth: OD600 after dilution into drug-free medium (mean) (non-growing UPEC CFT073; E. coli in LPM (pH 5.5), concentration 1): 0.379
- Regrowth: OD600 after dilution into drug-free medium (mean) (non-growing UPEC CFT073; E. coli in LPM (pH 5.5), concentration 2.5): 0.232
- Regrowth: OD600 after dilution into drug-free medium (mean) (non-growing UPEC CFT073; E. coli in LPM (pH 5.5), concentration 5): 0.178
- Regrowth: OD600 after dilution into drug-free medium (mean) (non-growing UPEC CFT073; E. coli in LPM (pH 5.5), concentration 10): 0.148
- Regrowth: OD600 after dilution into drug-free medium (mean) (non-growing UPEC CFT073; E. coli in LPM (pH 5.5), concentration 30): 0.112
- EC50 (non-growing UPEC CFT073; E. coli, LPM pH 5.5, regrowth delay of non-growing bacteria, 24 h treatment, OD600 6 h after 2500-fold dilution, read-out: EC50): 1160 nM
- EC50 (non-growing UPEC CFT073; LPM pH 5.5 (red curve), medium assigned by comparison with Dataset 1, read-out: EC50 (regrowth inhibition curve, Fig. S4)): 1190 nM
- Regrowth: OD600 after dilution into drug-free medium (mean) ([1]; concentration 0.1): 0.215
- Regrowth: OD600 after dilution into drug-free medium (mean) ([1]; concentration 0.5): 0.149
- Regrowth: OD600 after dilution into drug-free medium (mean) ([1]; concentration 2.5): 0.116
- Regrowth: OD600 after dilution into drug-free medium (mean) ([1]; concentration 10): 0.091
- EC50 ([1]; Staphylococcus aureus, DSM2569, regrowth delay of non-growing bacteria, 1:4 CA-MHB pH 7.4, 24 h treatment, OD600 8 h after dilution, read-out: EC50): 41 nM
- IC50 ([2]; Shigella flexneri, TC7, 14 h): 3090 nM
- Fluorescence intensity (RFU), Mean, 0.0625 x MIC ([2]; TC7 cells infected with GFP-expressing S. flexneri, 14 h treatment, 0.0625 x MIC): 10012.8 RFU
- Fluorescence intensity (RFU), Mean, 0.125 x MIC ([2]; TC7 cells infected with GFP-expressing S. flexneri, 14 h treatment, 0.125 x MIC): 10655.7 RFU
- Fluorescence intensity (RFU), Mean, 0.25 x MIC ([2]; TC7 cells infected with GFP-expressing S. flexneri, 14 h treatment, 0.25 x MIC): 3668.46 RFU
- Fluorescence intensity (RFU), Mean, 0.5 x MIC ([2]; TC7 cells infected with GFP-expressing S. flexneri, 14 h treatment, 0.5 x MIC): 1616.31 RFU
- Fluorescence intensity (RFU), Mean, 2 x MIC ([2]; TC7 cells infected with GFP-expressing S. flexneri, 14 h treatment, 2 x MIC): 1321.39 RFU
- Fluorescence intensity (RFU), Mean, 4 x MIC ([2]; TC7 cells infected with GFP-expressing S. flexneri, 14 h treatment, 4 x MIC): 1243.06 RFU
- Fluorescence intensity (RFU), Mean, 8 x MIC ([2]; TC7 cells infected with GFP-expressing S. flexneri, 14 h treatment, 8 x MIC): 1167.19 RFU
- Fluorescence intensity (RFU), Mean, 16 x MIC ([2]; TC7 cells infected with GFP-expressing S. flexneri, 14 h treatment, 16 x MIC): 915.083 RFU
- Fluorescence intensity (RFU), Mean, MIC ([2]; TC7 cells infected with GFP-expressing S. flexneri, 14 h treatment, MIC): 1458.03 RFU
